The values below come from US20250049891A1, “NOVEL PEPTIDE DERIVATIVE DERIVED FROM ADIPONECTIN AND USE THEREOF” (SEOUL NATIONAL UNIVERSITY HOSPITAL, priority 2021, published 2025).

Data set [1] relates to AMPK phosphorylation. Put plainly: AMPK phosphorylation activity in mouse adipocytes (Western blot). The data set is classed as cell-based. Particulars: 3T3-L1, 10 μM, 24 hours; for AMPK phosphorylation activity (fold change): APN5 = 1.0. Here is the method:
There were confirmed effects of the peptide derivatives of the present disclosure on the expression and receptor activity of adiponectin in mouse adipocytes as a main adiponectin production site. A mouse adipocyte cell line 3T3-L1 was treated with each of the peptide derivatives of the present disclosure at a concentration of 10 μM and cultured for 24 hours, and then cells were obtained. Thereafter, the proteins were extracted and the effect on AMPK phosphorylation, which was responsible for the main downstream signaling of adiponectin, was confirmed by Western blot.

Data set [2] can be described thus: in vitro. As to conditions: human, plasma.
Description: (§2) The peptide derivative of the present disclosure was added at a concentration of 1 μM to two types of plasma (human, rat), placed in each tube, and then cultured at 37° C. for time of 0, 30, 60, 120, and 240 minutes. The tube containing plasma was taken out every time, added with an acetonitrile solution containing an internal standard material (chlorpropamide), vortexed for 5 minutes, and centrifuged for 5 minutes (14,000 rpm, 4° C.). Thereafter, the plasma stability of the peptide derivative was evaluated by injecting the supernatant into an LC-MS/MS system and analyzing the drug at each time period. At this time, Procaine and Enalapril were used as reference materials for accuracy during a general plasma stability test.
(§3) After the reaction, the amount of drug remaining in each tube was analyzed by LC-MS/MS using Shimadzu Nexera XR system and TSQ vantage (Thermo). The HPLC column was used with a Luna C18 column (2.0×50 mm, 3 μm particle size; Phenomenex, US), and the mobile phase was distilled water (A) containing 0.1% formic acid and acetonitrile (B) containing 0.1% formic acid. Data analysis was performed using Xcalibur (version 1.6.1). In the result analysis, the plasma stability of each peptide derivative was expressed as % remaining for each time period for the sample without culture.
Data set [3] can be described thus: Metabolic stability test, mouse liver microsomes. The data set is classed as in vitro ADME. Particulars: pH 7.4, mouse liver microsomes 0.5 mg/ml, NADPH, 37° C., 30 m.
Description: (§4) Three types of liver microsomes (Human, Rat, Mouse, 0.5 mg/ml), a 0.1 M phosphate buffer solution (pH 7.4), and the peptide derivative of the present disclosure were added at a concentration of 1 μM and pre-cultured at 37° C. for 5 minutes, and then added with an NADPH Regeneration system solution and cultured at 37° C. for 30 minutes. Thereafter, to terminate the reaction, the mixture was added with an acetonitrile solution containing an internal standard material (chlorpropamide), centrifuged for 5 minutes (14,000 rpm, 4° C.), and then the supernatant was injected into the LC-MS/MS system to analyze a substrate drug, and thus metabolic stability was evaluated.
(§5) The amount of substrate remaining through the reaction was analyzed by LC-MS/MS using Agilent 1290 infinity series pump system (Agilent, USA) and Triple Quad 5500 LC-MS/MS system (Applied Biosystems, USA). The HPLC column was used with a Kinetex C18 column (2.1×100 mm, 1.7 μm particle size; Phenomenex, USA), and the mobile phase was distilled water (A) containing 0.1% formic acid and acetonitrile (B) containing 0.1% formic acid. TurboSpray Ionization was used as an ion source for MS/MS, and a triple quadruple type was used as a mass spectrometer. The produced metabolites were quantified using a multiple reaction monitoring (MRM) quantitative mode, and data analysis was performed using Analyst software (version 1.6.1).
Data set [4] is described as follows: in vitro. As to conditions: human, microsomes, pH 7.4.
Description: as §4
(§6) The HPLC column was used with a Kinetex C18 column (2.1×100 mm, 1.7 μm particle size; Phenomenex, USA), and the mobile phase was distilled water (A) containing 0.1% formic acid and acetonitrile (B) containing 0.1% formic acid. TurboSpray Ionization was used as an ion source for MS/MS, and a triple quadruple type was used as a mass spectrometer. The produced metabolites were quantified using a multiple reaction monitoring (MRM) quantitative mode, and data analysis was performed using Analyst software (version 1.6.1).
The nature of data set [5]: Metabolic stability test, rat liver microsomes. The class given is in vitro ADME. As to conditions: pH 7.4, rat liver microsomes 0.5 mg/ml, NADPH, 37° C., 30 m.
Description: as §4, §5
In data set [6] the test system is AMPK phosphorylation. Put plainly: Concentration dependence of AMPK phosphorylation activity (Western blot). The data set is classed as cell-based, mouse. As to conditions: 3T3-L1, 0, 0.01, 0.1, 1, 10, and 100 μM, 24 hours. Here is the method: A mouse adipocyte cell line 3T3-L1 was treated with the peptide derivative of the present disclosure at a series of concentrations of 0, 0.01, 0.1, 1, 10, and 100 μM and cultured for 24 hours, and then cells were obtained. Thereafter, the protein was extracted and the effect of the peptide derivative on AMPK phosphorylation in a concentration-dependent manner was confirmed by Western blot.

Another data set is described as follows: physchem. Particulars: pH 7.4, aqueous buffer, kinetic from dmso stock.
Data set [7] can be described thus: in vitro. Particulars: rat, plasma.
Description: as §2, §3
Another data set addresses CYP2D6 (Homo sapiens, UniProt P10635). As to conditions: microsomes, 10 µM. Here is the method:
(§1) Metabolites of each CYP isoenzyme indicator drug produced through the reaction were analyzed by LC-MS/MS using the Shimadzu Nexera XR system and TSQ vantage (Thermo).

A further data set has as its target T1, CYP1A2 (Homo sapiens, UniProt P05177).
T1 sequence (P05177 1-516): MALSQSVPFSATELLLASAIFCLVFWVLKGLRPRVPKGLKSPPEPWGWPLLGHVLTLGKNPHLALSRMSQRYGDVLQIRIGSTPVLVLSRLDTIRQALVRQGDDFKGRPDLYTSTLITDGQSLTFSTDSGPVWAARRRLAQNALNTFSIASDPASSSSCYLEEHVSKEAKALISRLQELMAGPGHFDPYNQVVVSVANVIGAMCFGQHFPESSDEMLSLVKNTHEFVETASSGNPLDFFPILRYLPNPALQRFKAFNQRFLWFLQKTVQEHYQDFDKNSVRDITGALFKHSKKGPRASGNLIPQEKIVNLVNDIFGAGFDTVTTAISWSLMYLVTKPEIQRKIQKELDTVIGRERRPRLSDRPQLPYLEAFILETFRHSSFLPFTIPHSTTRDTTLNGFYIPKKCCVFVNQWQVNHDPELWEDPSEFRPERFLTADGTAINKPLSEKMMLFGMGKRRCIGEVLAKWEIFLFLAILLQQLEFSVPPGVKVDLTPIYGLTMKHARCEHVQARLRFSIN
Particulars: microsomes, 10 µM. Here is the method:
as §1

A further data set addresses CYP2C19 (Homo sapiens, UniProt P33261). As to conditions: microsomes, 10 µM. The method, then:
as §1

In another data set the target is CYP3A4 (Homo sapiens, UniProt P08684). Particulars: microsomes, 10 µM. Here is the method: as §1
Another data set deals with CYP2C9 (Homo sapiens, UniProt P11712). As to conditions: microsomes, 10 µM. The method, then: as §1
The test system of data set [8] is 3T3-L1 adipocytes, RD muscle cells, keratinocytes, and fibroblasts. Put plainly: Cytotoxicity in vitro (MTT). The data set is classed as cell-based. As to conditions: 0, 0.1, 1, 10, 100, and 500 μM, 24 hours.
Description: Using four types of cell lines 3T3-L1 adipocytes, RD muscle cells, keratinocytes, and fibroblasts, each cell was dispensed at 5×10^4 cells per well in a 24-well plate and cultured for 24 hours under each cell culture condition. The medium was discarded, washed with PBS, replaced with a new medium without 10% FBS, treated with the peptide derivative of the present disclosure at different concentrations of 0, 0.1, 1, 10, 100, and 500 μM, and cultured for 24 hours. The medium was carefully removed again and washed with PBS, and then added with an MTT reagent according to a manufacturer's method, reacted at room temperature for 30 minutes, and then absorbance was measured at 450 nm.
A short description of data set [9]: Plasma stability test, rat plasma. Particulars: rat, plasma.
Description: as §2, §3
The target of the next data set is T2, adiponectin receptor 1 (Mus musculus, UniProt Q91VH1).
T2 construct: a mouse adipocyte cell line 3T3-L1 was treated with siRNA of an adiponectin receptor 1 to be knocked down; endogenous in cells; host or cells: 3T3-L1 mouse adipocyte cell line
T2 sequence (Q91VH1 1-375): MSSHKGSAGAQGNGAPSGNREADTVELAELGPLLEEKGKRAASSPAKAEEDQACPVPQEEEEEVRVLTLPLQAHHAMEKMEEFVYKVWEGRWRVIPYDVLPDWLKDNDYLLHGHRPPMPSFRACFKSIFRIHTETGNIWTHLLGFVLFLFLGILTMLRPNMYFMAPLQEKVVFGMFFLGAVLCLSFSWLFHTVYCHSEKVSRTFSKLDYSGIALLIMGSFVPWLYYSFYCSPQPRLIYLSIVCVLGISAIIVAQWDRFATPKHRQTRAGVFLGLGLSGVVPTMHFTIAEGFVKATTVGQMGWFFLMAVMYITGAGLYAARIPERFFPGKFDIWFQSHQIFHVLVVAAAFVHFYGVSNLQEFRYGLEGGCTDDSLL
Put plainly: AMPK phosphorylation activity after knockdown of adiponectin receptor 1 (siRNA, Western blot). Particulars: 3T3-L1, adiponectin receptor 1 siRNA, 10 μM, 24 hours. The class given is cell-based. The method, then:
In order to verify whether the peptide derivative of the present disclosure bound to an adiponectin receptor 1, a mouse adipocyte cell line 3T3-L1 was treated with siRNA of an adiponectin receptor 1 to be knocked down, and each of the peptide derivatives of the present disclosure was treated at 10 μM and cultured for 24 hours, and then cells were obtained. Thereafter, the proteins were extracted and it was confirmed by Western blot whether AMPK phosphorylation activity, which had been increased by the peptide derivatives, was lost.

Data set [10] is described as follows: Plasma stability test, human plasma. Particulars: human, plasma.
Description: as §2, §3
Data set [11] can be described thus: Metabolic stability test, human liver microsomes. As to conditions: human, microsomes, pH 7.4.
Description: as §4, §6
A further data set in a line: Solubility test. As to conditions: PRISMA HT test buffer, pH 7.4, aqueous buffer, kinetic from dmso stock.

Molecules are shown by their SMILES. ≈ marks a conversion by molar mass, not a printed value. Peptide text beside a SMILES is read from it.

Sequence of CYP3A4 (P08684 whole entry): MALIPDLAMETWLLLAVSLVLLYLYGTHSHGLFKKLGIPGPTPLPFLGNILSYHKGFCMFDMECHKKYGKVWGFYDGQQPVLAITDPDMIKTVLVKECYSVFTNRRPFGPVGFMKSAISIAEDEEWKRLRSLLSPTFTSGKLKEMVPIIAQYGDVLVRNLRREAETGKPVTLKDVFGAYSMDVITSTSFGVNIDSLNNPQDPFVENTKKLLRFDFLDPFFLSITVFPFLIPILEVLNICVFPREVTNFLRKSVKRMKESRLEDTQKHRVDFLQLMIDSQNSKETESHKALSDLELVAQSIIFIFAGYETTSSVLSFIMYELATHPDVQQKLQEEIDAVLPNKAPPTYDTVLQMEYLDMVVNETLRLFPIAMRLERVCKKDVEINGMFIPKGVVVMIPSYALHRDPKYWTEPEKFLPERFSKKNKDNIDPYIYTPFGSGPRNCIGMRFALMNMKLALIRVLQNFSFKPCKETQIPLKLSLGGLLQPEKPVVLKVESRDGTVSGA
Sequence of CYP2C9 (P11712 whole entry): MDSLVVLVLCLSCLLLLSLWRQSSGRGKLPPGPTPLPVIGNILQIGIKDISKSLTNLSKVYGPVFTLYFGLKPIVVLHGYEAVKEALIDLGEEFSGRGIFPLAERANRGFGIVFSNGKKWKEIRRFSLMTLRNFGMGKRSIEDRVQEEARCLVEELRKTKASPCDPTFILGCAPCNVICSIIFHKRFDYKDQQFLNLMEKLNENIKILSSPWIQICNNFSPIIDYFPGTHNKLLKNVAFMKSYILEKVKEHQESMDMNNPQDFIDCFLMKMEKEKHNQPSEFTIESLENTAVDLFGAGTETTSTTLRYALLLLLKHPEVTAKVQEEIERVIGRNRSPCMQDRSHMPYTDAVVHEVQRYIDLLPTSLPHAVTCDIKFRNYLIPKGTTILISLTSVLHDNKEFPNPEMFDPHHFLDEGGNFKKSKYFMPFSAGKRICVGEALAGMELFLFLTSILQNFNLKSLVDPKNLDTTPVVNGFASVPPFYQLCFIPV
Sequence of CYP2D6 (P10635 whole entry): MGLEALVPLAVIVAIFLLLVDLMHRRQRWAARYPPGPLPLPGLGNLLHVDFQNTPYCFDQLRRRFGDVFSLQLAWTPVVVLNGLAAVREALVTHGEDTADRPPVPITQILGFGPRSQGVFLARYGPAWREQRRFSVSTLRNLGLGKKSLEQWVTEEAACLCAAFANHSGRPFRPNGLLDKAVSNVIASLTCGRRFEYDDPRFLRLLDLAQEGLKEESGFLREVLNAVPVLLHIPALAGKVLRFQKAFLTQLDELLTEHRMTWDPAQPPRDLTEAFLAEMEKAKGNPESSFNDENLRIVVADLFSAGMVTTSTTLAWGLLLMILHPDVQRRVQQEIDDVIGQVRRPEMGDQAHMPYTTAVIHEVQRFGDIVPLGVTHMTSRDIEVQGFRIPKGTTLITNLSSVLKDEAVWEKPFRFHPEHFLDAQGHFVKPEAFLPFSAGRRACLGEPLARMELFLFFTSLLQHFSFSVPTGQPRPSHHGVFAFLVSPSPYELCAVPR
Sequence of CYP2C19 (P33261 whole entry): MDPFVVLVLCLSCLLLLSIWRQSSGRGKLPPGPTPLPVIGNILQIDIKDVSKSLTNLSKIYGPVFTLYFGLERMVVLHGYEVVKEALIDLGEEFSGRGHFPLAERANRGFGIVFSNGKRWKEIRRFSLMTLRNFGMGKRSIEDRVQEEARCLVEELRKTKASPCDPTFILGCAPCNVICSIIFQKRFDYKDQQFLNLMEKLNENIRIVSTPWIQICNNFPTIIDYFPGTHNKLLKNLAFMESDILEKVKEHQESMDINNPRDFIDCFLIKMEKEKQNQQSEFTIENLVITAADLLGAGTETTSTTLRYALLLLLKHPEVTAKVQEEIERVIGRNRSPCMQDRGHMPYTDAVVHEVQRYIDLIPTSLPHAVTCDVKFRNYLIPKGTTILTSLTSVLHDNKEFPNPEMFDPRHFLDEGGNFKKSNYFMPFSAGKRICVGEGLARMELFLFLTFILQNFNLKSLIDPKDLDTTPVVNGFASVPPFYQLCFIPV
Description for Solubility test: (§7) A PRISMA HT solution was diluted in distilled water at a ratio of 1:40, and then used as a test buffer by adjusting the pH to 7.4.
(§8) 10 mL of the prepared test material was diluted in 190 μL of isopropyl alcohol and prepared. In addition, 75 mL of the test solution and 70 mL of isopropyl alcohol were mixed to be used as a blank sample, and 5 mL of the test material diluted in isopropyl alcohol was added to the blank sample. After the diluted sample was mixed, the absorbance was measured and used as an initial test value. […] Thereafter, the precipitate was removed from the sample using a filter plate, 74 mL of the filtered sample was added with 75 mL of isopropyl alcohol, and then the absorbance was measured and used as the sample value.
(§9) The solubility value of the test material was analyzed using a msol Explore (Solubility explorer program) after measuring the absorbance of each sample through a microplate reader. The average and standard deviation of the experimental values (n=3) repeated three times were calculated using the Excel program.
Description for physchem: as §7, §8, §9

Consider `CC(=O)NC(CC(=O)O)C(=O)NC(Cc1ccc(O)cc1)C(=O)NC(Cc1ccc(O)cc1)C(=O)NC(Cc1ccccc1)C(=O)O` (stereo not shown) [DS-28, AcNH-DYYF-OH] (Ac-DYYF-OH; configuration not given here), for which the “AMPK phosphorylation activity (fold change)” value with AMPK phosphorylation [1] worked out at 1.9 fold change. Also, the fraction remaining at 0.5 h, 1 μM in “in vitro [2]” is 17.6%; in data set [3], 96.6%; in “in vitro [4]”, 93.8%; in data set [5], 85.8%; in “in vitro [7]”, over 100%. For the same compound, the figures for the amount remaining at 2 h, 1 μM in “in vitro [2]” and in the data set “in vitro [7]” were 3.1% and over 100%, respectively. The “concentration dependence of AMPK phosphorylation activity” value in the data set on AMPK phosphorylation [6] is reported as “increased AMPK phosphorylation activity in a concentration-dependent manner”. The compound further displayed a solubility at 24 h in “physchem” of 321 µg/mL (≈ 495 µM). Further, the “CYP inhibition (% of control activity) CYP2D6” value on CYP2D6 is listed as 86.1 % of control activity. For the same compound, the “CYP inhibition (% of control activity) CYP1A2” value at CYP1A2 is on record as 81.7 % of control activity. For the same compound, the “CYP inhibition (% of control activity) CYP2C19” value at CYP2C19 is given as 87.2 % of control activity. In addition, the “CYP inhibition (% of control activity) CYP3A4” value on CYP3A4 is recorded as 95.5 % of control activity. The “CYP inhibition (% of control activity) CYP2C9” value on CYP2C9 is listed as 96.9 % of control activity.

In the case of `CC(C)CC(NC(=O)CN)C(=O)NC(Cc1ccc(O)cc1)C(=O)NC(Cc1ccc(O)cc1)C(=O)N(C)C(Cc1ccccc1)C(N)=O` (stereo not shown) [DS-48, NH2-GLYYF(N-Me)-NH2], the “AMPK phosphorylation activity (fold change)” value in the data set with AMPK phosphorylation [1] is given as 1.5 fold change. The “AMPK phosphorylation activity compared to APN5 (in words)” value in the data set with AMPK phosphorylation [1] (compared to APN5) is reported as “significant effect of increasing AMPK phosphorylation activity”. Further, the amount remaining at 0.5 h, 1 μM in data set [3] is 20.6%; in [5], 2.8%; in data set [9], over 100%; in data set [10] it was 1.1%; in [11] it was 21.6%. The cytotoxicity result in data set [8] was “no toxicity”. The “concentration dependence of AMPK phosphorylation activity” value in the data set with AMPK phosphorylation [6] is given as “increased AMPK phosphorylation activity in a concentration-dependent manner”. For the same compound, the share remaining at 2 h, 1 μM in [9] was 84.9%; in [10], under 1%. Moreover, the “AMPK phosphorylation activity after knockdown of the adiponectin receptor 1” value at adiponectin receptor 1 is “decreased the AMPK phosphorylation activity after knockdown of the adiponectin receptor 1”. Also, in the data set “Solubility test”, the solubility at 24 h was 334 µg/mL (≈ 495 µM).
